The source of these data is CN111909135A, “一种azd9291氘代物甲磺酸盐新盐型及其制备方法” (Tianjin University, priority 2020, dated 2020).

The nature of data set [1]: Water solubility of the crystal form at 25℃ (Chinese Pharmacopoeia 2015, part IV). In kind it is physicochemical.
Data set [2] can be described thus: Crystal form stability, high temperature (60℃) and accelerated (40℃, RH75%) tests. In kind it is physicochemical.

Consider `C=CC(=O)Nc1cc(Nc2nccc(-c3cn(C)c4ccccc34)n2)c(OC)cc1N(C)CCN(C)C` [AZD9291氘代物甲磺酸盐新盐型], for which, in data set [1], the “increase in solubility relative to AZD9291 deuterated compound mesylate (WO2018214886A1 and CN201810495698.7)” value is given as 3 fold. In addition, the “crystal form transformation (XRD)” value in data set [2] (40℃, RH75%, accelerated stability, 0, 5 and 10 days) is listed as “未发生 晶型转变”. Moreover, the “appearance, colour and crystal form change” value in data set [2] (high temperature (60℃, humidity not limited) and accelerated (40℃, RH75%), 5 and 10 days) is “外观色泽及晶 型均无变化”.
